In paper PMC10412636, “An analysis of interactions between three structurally diverse anthocyanidins, as well as their glucosides, and model biological membranes, albumin, and plasmid DNA” (Scientific Reports, 2023):

Experiments:
[1] = MC540 probe fluorescence intensity in MM liposomes; details: 37 °C, positive = decrease
Procedure: (§1) Two types of liposomes were used to study interactions with biological membranes: liposomes mimicking the composition of cancer cell membranes (mimic membrane liposome—MM) and liposomes formed from lipids extracted from human blood erythrocyte membranes (red blood cell membrane liposome—RBCM). […] Both lipids, dissolved in chloroform (MM liposome) and n-decane (RBCM liposome), were evaporated under a nitrogen atmosphere, and then dried in a desiccator for 90 min under a vacuum. The obtained dry lipid film was hydrated in phosphate buffer, pH 7.4, obtaining a concentration of 0.1 mg/ml, and then vortexed for one minute until a homogeneous, milky suspension was observed. The mixture was sonicated (Sonic, Milano, Italia) for 15 min keeping the sample in a bath of ice water, thus providing a cooling temperature of 0 °C. The suspension was then processed (extrusion) through polycarbonate filters with pore diameters of 100 and 200 nm using a Lipex extruder (Evonik). Liposomes, which had been prepared according to this procedure, was used in fluorimetric studies.
(§2) To investigate these properties three fluorescent probes were used: MC540, TMA-DPH, and DPH. MC540 localizes to the outer, hydrophilic part of the membrane, within the region of the glycerol skeleton[44]. Changes in the fluorescence intensity of this probe were formulated as the relative change in intensity to the control as a function of anthocyanins concentration. The TMA-DPH and DPH probes are supposed to locate nearer to the interface and in the hydrophobic region, respectively[45]. The measurement of changes in the anisotropy of the TMA-DPH and DPH probes allowed us to reflect the mobility of the fluorescent probes in the membrane, and therefore to determine the fluidity of the bilayer[46]. Fluorescence anisotropy was calculated using the formula[47]:1 A=I‖-GI⊥/I‖+2GI⊥ where I‖ and I⊥ are the intensity of fluorescence in parallel and perpendicular directions, to the plane of polarization of the excitation wave, respectively. G is an apparatus constant that depends on the emission wavelength.
(§3) Liposomes (the concentration of lipids in the sample was 0.1 mg/ml) were incubated for 30 min with the appropriate probe (dissolved in DMF, 1 µM concentration), and then the tested anthocyanins were added (final concentration of 1 to 30 µM). The control sample consisted of liposomes and a fluorescent probe. Fluorescence was measured on a fluorimeter (Cary Eclipse, Varian, San Diego, USA) at 37 °C. The excitation wavelengths λex and emission wavelengths λem respectively: MC540—λexc = 540 nm, λem = 590 nm; DPH—λexc = 360 nm, λem = 425 nm. nm; TMA-DPH—λexc = 340 nm, λem = 430 nm.

[2] = MC540 probe fluorescence intensity in RBCM liposomes; design: species or system human; details: 37 °C, positive = decrease
Procedure: as §1, §2, §3

[3] = TMA-DPH probe fluorescence anisotropy in MM liposomes; details: negative = increase in anisotropy
Procedure: as §1, §2, §3

[4] = TMA-DPH probe fluorescence anisotropy in RBCM liposomes; design: species or system human; details: negative = increase in anisotropy
Description: Two types of liposomes were used to study interactions with biological membranes: liposomes mimicking the composition of cancer cell membranes (mimic membrane liposome—MM) and liposomes formed from lipids extracted from human blood erythrocyte membranes (red blood cell membrane liposome—RBCM). […] The RBCM liposome was according to the methodology described previously[42] with minor modifications[43]. Both lipids, dissolved in chloroform (MM liposome) and n-decane (RBCM liposome), were evaporated under a nitrogen atmosphere, and then dried in a desiccator for 90 min under a vacuum. The obtained dry lipid film was hydrated in phosphate buffer, pH 7.4, obtaining a concentration of 0.1 mg/ml, and then vortexed for one minute until a homogeneous, milky suspension was observed. The mixture was sonicated (Sonic, Milano, Italia) for 15 min keeping the sample in a bath of ice water, thus providing a cooling temperature of 0 °C. The suspension was then processed (extrusion) through polycarbonate filters with pore diameters of 100 and 200 nm using a Lipex extruder (Evonik). Liposomes, which had been prepared according to this procedure, was used in fluorimetric studies.
To investigate these properties three fluorescent probes were used: MC540, TMA-DPH, and DPH. MC540 localizes to the outer, hydrophilic part of the membrane, within the region of the glycerol skeleton[44]. […] The TMA-DPH and DPH probes are supposed to locate nearer to the interface and in the hydrophobic region, respectively[45]. The measurement of changes in the anisotropy of the TMA-DPH and DPH probes allowed us to reflect the mobility of the fluorescent probes in the membrane, and therefore to determine the fluidity of the bilayer[46]. Fluorescence anisotropy was calculated using the formula[47]:1 A=I‖-GI⊥/I‖+2GI⊥ where I‖ and I⊥ are the intensity of fluorescence in parallel and perpendicular directions, to the plane of polarization of the excitation wave, respectively. G is an apparatus constant that depends on the emission wavelength.
as §3

[5] = DPH probe fluorescence anisotropy in MM liposomes; details: MM, negative = increase in anisotropy
Procedure: as §1, §2, §3

[6] = DPH probe fluorescence anisotropy in RBCM liposomes; design: species or system human; details: RBCM, negative = increase in anisotropy
Procedure: as §1, §2, §3

[7] = DPH fluorescence quenching, dissociation constant with MM liposome membrane; assay type: binding; details: 37 °C
Procedure: as §1
(§4) The phenomenon of quenching the fluorescence of the DPH probe by biologically active substances enabled us to evaluate the partition coefficient (Kd, dissociation constant) of anthocyanins with both MM and RBCM liposome membranes. For this purpose, changes in the fluorescence intensity of this probe were checked and the coefficient was calculated using the equation[48]:2 1/F0/F-1=Kd/[liposomes]×1/[anthocyanins]+1/liposomes where F0—fluorescence intensity in the absence of anthocyanins (control sample), F—fluorescence intensity in the presence of anthocyanins, [liposomes]—concentration of liposomes in mg/ml, [anthocyanins]—concentration of anthocyanins tested mg/ml.
as §3

[8] = DPH fluorescence quenching, dissociation constant with RBCM liposome membrane; assay type: binding, human; details: 37 °C
Procedure: as §1, §4, §3

[9] = target: human serum albumin (HSA) (Homo sapiens, UniProt P02768); assay: Quenching of natural fluorescence of human serum albumin; assay type: binding; details: HSA […] 10^–5 M, 37 °C
Procedure: The phenomenon of quenching the natural fluorescence of human serum albumin (HSA) was used to investigate the potential interaction of anthocyanins with this protein. […] Anthocyanins with concentrations ranging from 1 to 30 µM were added to HSA dissolved in phosphate buffer (1.5 × 10^–5 M) and then incubated at 37 °C for 20 min. Emission spectra were performed on a fluorimeter Cary Eclipse (Varian, San Diego, USA) at 37 °C. HSA fluorescence was excited with a wavelength of λ = 280 nm, the emission was measured in the range from 286 to 460 nm, and the fluorescence intensity was read at 345 nm where the emission maximum of HSA was located.
The Stern–Volmer equation was used to thoroughly describe the quenching mechanism of natural fluorescence and to determine the bindings parameters of HSA: anthocyanin complexes:4 F0/F=1+Kqτ0Q=1+KSV[Q] where F0—fluorescence intensity in the absence of anthocyanins (control sample), F—fluorescence intensity in the presence of anthocyanins, KSV—Stern–Volmer quenching constant (KSV = Kq·τ0), [Q]—concentration of quencher (tested compound), Kq—bimolecular quenching constant, τ0—a lifetime of the fluorophore in the absence of quencher the fluorescence lifetime of a biopolymer is calculated as 5 × 10^–9 s[51].
The apparent binding constants (Kb) and the number of binding sites (n) can be calculated using the following equation:5 log(F0-F/F]=logKb+nlog[Q]
F0 and F are the fluorescence intensities before and after the addition of the quencher. From the linear plot of log (F0 − F)/F versus log [Q], the value of Kb was obtained from the intercept.

[10] = test system: pHbApr-1-Neo plasmid DNA; assay: TCSPC-FCS of PicoGreen-labelled plasmid DNA with anthocyanins; assay type: binding
Procedure: To evaluate the biological interaction with DNA molecules the anthocyanins were initially dissolved in ETOH (1 mM). […] Mixing of such solutions with the aqueous DNA solutions used in the studies never exceeded 1% concentration ETOH (v/v) in the final solution. The DNA plasmid was labelled by PicoGreen (CPicoGreen/CDNAbp = 0.02)[52]. The pHbApr-1-Neo plasmid (10 kbp and contour length 3.4 µm) was a generous gift from the laboratory of Prof. Maciej Ugorski (Department of Biochemistry and Molecular Biology, Wrocław University of Environmental and Life Sciences Wroclaw, Poland). PicoGreen-labelled DNA samples mixed with the appropriate amount of anthocyanins were left overnight and then measured. The increasing concentration of anthocyanins in the tested samples was expressed as the ratio of the molar concentration of anthocyanins per molar concentration of DNA base pairs in a given sample (comp/bp). The 100 µl samples were measured in Ibidi 8-well chambers. Each point on the graph is a single sample (average of 10 measurements). All measurements were performed at room temperature (25 °C). Time-correlated single-photon counting fluorescence correlation spectroscopy (TCSPC-FCS) was used to study the interaction of plasmid DNA at the single molecule level with all tested anthocyanins. […] Low power of 1uW (at the back aperture of the objective) was chosen to minimize photobleaching and saturation. In the detection plane, a pinhole (50um in diameter) was used and the signal was collected by a single photon avalanche diode (SPAD, Microphoton Devices, Bolzano, Italy). Photon arrival times were stored using fast electronics (Picoharp 300, PicoQuant) in time-tagged time-resolved recording mode. Two independent times were assigned to each detected photon: (1) a time after the beginning of the measurement and (2) a time after the previous laser pulse. The FCS data analysis was done using home-built routines (DevC++, Bloodshed Software and OriginPro70, OriginLab Corporation). The TCSPC data analysis was performed using SymPhoTime software (PicoQuant). Further details of the data evaluation are given elsewhere.

[11] = test system: HSA; design: method as in earlier work; details: cited from earlier work
[12] = 30 µM, listed as delphinidin glucoside

human serum albumin (HSA), sequence (P02768 25-609): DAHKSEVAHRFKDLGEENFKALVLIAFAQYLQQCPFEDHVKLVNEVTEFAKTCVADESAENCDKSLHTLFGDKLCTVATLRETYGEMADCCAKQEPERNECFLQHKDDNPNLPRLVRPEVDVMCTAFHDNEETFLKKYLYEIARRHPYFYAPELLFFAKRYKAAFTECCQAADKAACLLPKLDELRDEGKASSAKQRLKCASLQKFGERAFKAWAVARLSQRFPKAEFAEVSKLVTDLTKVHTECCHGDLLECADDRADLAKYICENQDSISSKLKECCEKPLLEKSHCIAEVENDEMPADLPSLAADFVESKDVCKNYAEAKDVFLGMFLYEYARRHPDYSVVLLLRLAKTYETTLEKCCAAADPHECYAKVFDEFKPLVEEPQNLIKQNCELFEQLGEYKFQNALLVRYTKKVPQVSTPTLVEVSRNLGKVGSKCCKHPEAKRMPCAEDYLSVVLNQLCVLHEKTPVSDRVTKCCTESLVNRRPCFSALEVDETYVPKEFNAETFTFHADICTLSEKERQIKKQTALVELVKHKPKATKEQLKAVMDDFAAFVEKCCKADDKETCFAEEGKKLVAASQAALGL

With OCC1OC(Oc2cc3c(O)cc(O)cc3[o+]c2-c2cc(O)c(O)c(O)c2)C(O)C(O)C1O (centres unmarked) [Dp 3-glc, Delphinidin 3-O-glucoside] the “Changes in MC540 fluorescence intensity relative to the control” value ([1]; 1 µM) was 3.27±0.12%, the “Changes in MC540 fluorescence intensity relative to the control” value ([1]; 5 µM) was 5.73±0.30% and the “Changes in MC540 fluorescence intensity relative to the control” value ([1]; 10 µM) was 10.51±0.55%. The “Changes in MC540 fluorescence intensity relative to the control” value ([1]; 20 µM) was 20.30±0.93%, the “Changes in MC540 fluorescence intensity relative to the control” value ([1]; 30 µM) was 30.30±0.19% and the “Changes in MC540 fluorescence intensity relative to the control” value [1, 12] was 30.3 ± 0.2%. The “Changes in MC540 fluorescence intensity relative to the control” value ([2]; 1 µM) was 11.73±0.51%, the “Changes in MC540 fluorescence intensity relative to the control” value ([2]; 5 µM) was 17.29±0.54% and the “Changes in MC540 fluorescence intensity relative to the control” value ([2]; 10 µM) was 22.06±1.25%. For the same molecule, the “Changes in MC540 fluorescence intensity relative to the control” value ([2]; 20 µM) was 36.70±4.24%, the “Changes in MC540 fluorescence intensity relative to the control” value ([2]; 30 µM) was 47.56±9.12% and the “Changes in MC540 fluorescence intensity relative to the control” value [2, 12] was 47.6 ± 9.1%. For the same molecule, the “Changes in TMA-DPH anisotropy relative to the control” value ([3]; 1 µM) was -4.62±0.05%, the “Changes in TMA-DPH anisotropy relative to the control” value ([3]; 5 µM) was -1.60±0.04% and the “Changes in TMA-DPH anisotropy relative to the control” value ([3]; 10 µM) was 0.26±0.005%. The “Changes in TMA-DPH anisotropy relative to the control” value ([3]; 20 µM) was 1.99±0.06%, the “Changes in TMA-DPH anisotropy relative to the control” value ([3]; 30 µM) was 0.41±0.01% and the “Changes in TMA-DPH anisotropy relative to the control” value ([4]; 1 µM) was -2.73±0.14%. For the same molecule, the “Changes in TMA-DPH anisotropy relative to the control” value ([4]; 5 µM) was -0.01±0.00%, the “Changes in TMA-DPH anisotropy relative to the control” value ([4]; 10 µM) was 2.57±0.07% and the “Changes in TMA-DPH anisotropy relative to the control” value ([4]; 20 µM) was 2.52±0.16%. The “Changes in TMA-DPH anisotropy relative to the control” value ([4]; 30 µM) was 1.15±0.03%, the “Changes in DPH anisotropy relative to the control” value ([5]; 1 µM) was -10.78±0.24% and the “Changes in DPH anisotropy relative to the control” value ([5]; 5 µM) was -12.62±0.18%. The “Changes in DPH anisotropy relative to the control” value ([5]; 10 µM) was -10.40±0.13%, the “Changes in DPH anisotropy relative to the control” value ([5]; 20 µM) was -7.80±0.10% and the “Changes in DPH anisotropy relative to the control” value ([5]; 30 µM) was -6.27±0.05%. The “Changes in DPH anisotropy relative to the control” value ([6]; 1 µM) was -6.55±0.37%, the “Changes in DPH anisotropy relative to the control” value ([6]; 5 µM) was -6.14±0.25% and the “Changes in DPH anisotropy relative to the control” value ([6]; 10 µM) was -6.03±0.39%. The “Changes in DPH anisotropy relative to the control” value ([6]; 20 µM) was -6.20±0.38%, the “Changes in DPH anisotropy relative to the control” value ([6]; 30 µM) was -6.30±0.39% and the Kd [7] was 93.6 ± 19.5 µM. For the same molecule, the Kd [8] was 13.4 ± 3.05 µM, the “Stern Volmer constant KSV” value [9] was 20.09 ± 2.57 × 10^3 M^−1 and the “number of binding sites n” value [9] was 0.96 ± 0.03. For the same molecule, the “tD changes, times smaller than those caused by Pt3-glc” value [10] was “more than 5 times”, the “lifetime (LT)” value ([10]; 0 < comp/bp < 2, decrease from 4.25 ns) was “about 2.25 ns” and the “lifetime (LT), plateau” value ([10]; 2 < comp/bp < 5) was “about 2.1 ns”. For the same molecule, the “decrease in the diffusion time (tD)” value ([10]; tested range of comp/bp from 0 to 5) was 2.5 fold and the “affinity for HSA compared to aglycone” value [11] was “tenfold lower”.
With Oc1cc(O)c2cc(O)c(-c3cc(O)c(O)c(O)c3)[o+]c2c1 [Dp, Delphinidin] the “Changes in MC540 fluorescence intensity relative to the control” value ([1]; 1 µM) was 13.66±1.64%, the “Changes in MC540 fluorescence intensity relative to the control” value ([1]; 5 µM) was 26.57±1.99% and the “Changes in MC540 fluorescence intensity relative to the control” value ([1]; 10 µM) was 41.91±1.76%. For the same molecule, the “Changes in MC540 fluorescence intensity relative to the control” value ([1]; 20 µM) was 63.50±4.28%, the “Changes in MC540 fluorescence intensity relative to the control” value ([1]; 30 µM) was 73.23±5.31% and the “Changes in MC540 fluorescence intensity relative to the control” value ([1]; 30 µM, listed as delphinidin) was 73.2 ± 5.3%. For the same molecule, the “Changes in MC540 fluorescence intensity relative to the control” value ([2]; 1 µM) was 19.22±0.56%, the “Changes in MC540 fluorescence intensity relative to the control” value ([2]; 5 µM) was 30.39±0.90% and the “Changes in MC540 fluorescence intensity relative to the control” value ([2]; 10 µM) was 42.45±2.77%. For the same molecule, the “Changes in MC540 fluorescence intensity relative to the control” value ([2]; 20 µM) was 58.15±3.73%, the “Changes in MC540 fluorescence intensity relative to the control” value ([2]; 30 µM) was 64.08±6.62% and the “Changes in MC540 fluorescence intensity relative to the control” value ([2]; 30 µM, listed as delphinidin) was 64.1 ± 6.6%. For the same molecule, the “Changes in TMA-DPH anisotropy relative to the control” value ([3]; 1 µM) was -5.27±0.20%, the “Changes in TMA-DPH anisotropy relative to the control” value ([3]; 5 µM) was -5.27±0.16% and the “Changes in TMA-DPH anisotropy relative to the control” value ([3]; 10 µM) was -2.04±0.17%. The “Changes in TMA-DPH anisotropy relative to the control” value ([3]; 20 µM) was 0.86±0.02%, the “Changes in TMA-DPH anisotropy relative to the control” value ([3]; 30 µM) was -7.43±0.30% and the “Changes in TMA-DPH anisotropy relative to the control” value ([4]; 1 µM) was -5.61±0.35%. For the same molecule, the “Changes in TMA-DPH anisotropy relative to the control” value ([4]; 5 µM) was -2.41±0.11%, the “Changes in TMA-DPH anisotropy relative to the control” value ([4]; 10 µM) was 1.85±0.06% and the “Changes in TMA-DPH anisotropy relative to the control” value ([4]; 20 µM) was 1.35±0.15%. For the same molecule, the “Changes in TMA-DPH anisotropy relative to the control” value ([4]; 30 µM) was 4.73±0.21%, the “Changes in DPH anisotropy relative to the control” value ([5]; 1 µM) was -8.87±0.24% and the “Changes in DPH anisotropy relative to the control” value ([5]; 5 µM) was -12.33±0.13%. The “Changes in DPH anisotropy relative to the control” value ([5]; 10 µM) was -14.45±0.24%, the “Changes in DPH anisotropy relative to the control” value ([5]; 20 µM) was -16.33±0.38% and the “Changes in DPH anisotropy relative to the control” value ([5]; 30 µM) was -12.45±0.57%. The “Changes in DPH anisotropy relative to the control” value ([6]; 1 µM) was -9.06±0.14%, the “Changes in DPH anisotropy relative to the control” value ([6]; 5 µM) was -9.32±0.41% and the “Changes in DPH anisotropy relative to the control” value ([6]; 10 µM) was -6.55±0.22%. For the same molecule, the “Changes in DPH anisotropy relative to the control” value ([6]; 20 µM) was -8.84±0.31%, the “Changes in DPH anisotropy relative to the control” value ([6]; 30 µM) was -7.33±0.24% and the Kd [7] was 11.5 ± 2.07 µM. For the same molecule, the Kd [8] was 9.89 ± 1.96 µM, the “Stern Volmer constant KSV” value [9] was 22.46 ± 1.00 × 10^3 M^−1 and the “number of binding sites n” value [9] was 1.03 ± 0.05. The “change in Particle Number (PN)” value ([10]; comp/bp 1.0–5.0) was “no changes”, the “diffusion time (tD), plateau” value ([10]; comp/bp 1.0–5.0) was 25 to 28 ms and the “lifetime (LT)” value ([10]; comp/bp 1.0–5.0, decrease from 3.5 ns) was “about 2.3 ns”. The “decrease in the diffusion time (tD)” value ([10]; comp/bp = 0.8, from about 70 ms) was “tenfold”, the “lifetime (LT)” value ([10]; comp/bp = 0.8, plasmid alone 4.25 ns) was “about 3.5 ns” and the “Particle Number (PN)” value ([10]; comp/bp = 0.8, plasmid alone 5) was “about 1.2”. For the same molecule, the “diffusion time (tD)” value ([10]; comp/bp = 0.8, plasmid alone about 70 ms) was 7.0 ms, the “changes in plasmid tD, lower compared to those obtained for Pt 3-glc” value ([10]; comp/bp up to 0.8) was “about 2 fold” and the “decrease in tD compared to the initial plasmid diffusion time” value ([10]; plateau, comp/bp 1.0–5.0) was “twofold”.
